Patent US20090215760A1, “SYNERGISTIC INSECTICIDE MIXTURES” (priority 2004, published 2009)

Assays:
Assay type in all cases: in vivo
[1] = system: Plutella xylostella, normal sensitive strain; experiment: Plutella xylostella test (normal sensitive strain), cabbage leaf dip; conditions: single active compound
Description: (§1) The action expected for a given combination of two active components can be calculated as follows (cf. Colby, S. R., “Calculating Synergistic and Antagonistic Responses of Herbicide Combinations”, Weeds 15, pages 20-22, 1967):
(§2) if • X stands for the death rate expressed as % of the untreated controls on application of active component A at an applied amount of m ppm • Y for the death rate expressed as % of the untreated controls on application of active component B at an applied amount of n ppm • E for the death rate expressed as % of the untreated controls on application of active components A and B at applied amount of m and n ppm • then
(§3) If the actual insecticidal death rate is greater than calculated, the combination is superadditive in its death rate, i.e. there is a synergistic effect. In this case the death rate actually observed must be greater than the value for the expected death rate (E) calculated from the above equation.
Plutella xylostella Test (Normal Sensitive Strain)
(§4) To prepare a suitable formulation of the active material 1 part by weight of the active material is mixed with the given amounts of solvent and emulsifier and the concentrate is diluted to the desired concentration with water containing the emulsifier.
Cabbage leaves (Brassica oleracea) are treated by dipping into the active mixture formulation at the desired concentration and infected with the caterpillar of the diamondback (cabbage) moth (Plutella xylostella, normal sensitive strain) while the leaves are still moist.
(§5) After the desired time the death rate is calculated as %, where 100% means that all caterpillars were killed, 0% that no caterpillars were killed. The death rates are calculated by the Colby equation.

[2] = system: Myzus persicae; experiment: Myzus persicae test, cabbage leaf dip; conditions: single active compound
Description: as §1, §2, §3, §4
Cabbage leaves (Brassica oleracea) which are highly infected by the green peach aphid (Myzus persicae) are treated by dipping into the active mixture formulation of the desired concentration.
After the desired time the death rate is calculated as %, where 100% means that all aphids were killed, 0% that no aphids were killed. The death rates were calculated by the Colby equation.

[3] = system: Spodoptera frugiperda; experiment: Spodoptera frugiperda test, cabbage leaf dip; conditions: 4 ppm, single active compound
Description: as §1, §2, §3
Spodoptera frugiperda Test […]
as §5

[4] = 4 ppm, 6 d (Table B, clothianidin series)

| Structure (SMILES) | Death rate in % after 6 d ([1]; 4 ppm) [%] | Death rate in % after 6 d [2, 4] [%] | Death rate in % after 6 d [3] [%] | also measured |
| --- | --- | --- | --- | --- |
| CN/C(=N\[N+](=O)[O-])NCc1cnc(Cl)s1 [Clothianidin] | 10 | 0 | – | – |
| CC[S+]([O-])c1c(C#N)nn(-c2c(Cl)cc(C(F)(F)F)cc2Cl)c1N (stereo not drawn) [Ethiprole, ethiprole] | 0 | 0 | 0 | Death rate in % after 4 d ([1]; 20 ppm): 35%; Death rate in % after 6 d ([2]; 0.8 ppm, 6 d (Table B, imidacloprid series)): 0%; Death rate in % after 6 d ([2]; 4 ppm, 6 d (Table B, thiacloprid series)): 10% |
| O=[N+]([O-])/N=C1\NCCN1Cc1ccc(Cl)nc1 [Imidacloprid] | – | – | 15 | Death rate in % after 6 d ([2]; 0.16 ppm, 6 d (Table B, imidacloprid series)): 0% |
| N#C/N=C1\SCCN1Cc1ccc(Cl)nc1 [Thiacloprid] | – | – | – | Death rate in % after 4 d ([1]; 4 ppm): 0%; Death rate in % after 6 d ([2]; 0.8 ppm, 6 d (Table B, thiacloprid series)): 15% |
